Experimental data: patent US5798375A, “Treatment of arteriosclerosis and xanthoma” (Sankyo Company, Limited, priority 1995, dated 1998)

Legend:
Male Fl b hamsters = test: Example 4: regression of preformed atherosclerosis in hamsters (Oil Red O stained area); type: in vivo
Description: Synergism of HMG CoA reductase inhibitors and thiazolidinedione insulin sensitizers was examined by another regression model, i.e. the regression of preformed atherosclerosis in hamsters. Male Fl b hamsters (weight about 130 g,) were given a diet containing 0.05% cholesterol for 13 weeks. They were grouped randomly (2-7 animals per group), and then the test samples were administered for 4 weeks while the hamsters were given a normolipidaemic diet. Pravastatin and fluvastatin were mixed with drinking water at the dose of 3 mg/kg and 1.5 mg/kg, respectively, while troglitazone was mixed with the diet at the dose of 30 mg/kg or 100 mg/kg.
In the case of the combination groups, the dosage was 3 mg/kg+30 mg/kg or 3 mg/kg+100 mg/kg for the pravastatin+troglitazone group, and 1.5 mg/kg+30 mg/kg for the fluvastatin+troglitazone group.
Namely, the aortic arch was stained with ORO to prepare en face specimens. The percentage area which was positive to the ORO stain over the whole area was measured to represent the degree of aortic lesion.

WHHL rabbits = test: Example 2: incidence and degree of xanthoma of the four legs; type: in vivo, Male WHHL rabbits; parameters: Frequency of massive xanthoma: unit not given here
Description: Each test compound was administered for eight months to the rabbits in the form of an aqueous suspension (0.5% carboxymethylcellulose added). In the control group, a 0.5% carboxymethylcellulose solution only was administered.
The incidence and the degree of xanthoma of the four legs were measured.

[1] = oral, eight months, control 100 (14/14), *p < 0.05, **p < 0.01 vs control

In the case of `CC[C@H](C)C(=O)O[C@H]1C[C@H](O)C=C2C=C[C@H](C)[C@H](CC[C@@H](O)C[C@@H](O)CC(=O)O)[C@H]21` [Pravastatin, sodium 1,2,6,7,8,8a-hexahydro-6,8-tetrahydroxy-2-methyl-1-naphthaleneheptanoate], the “Stained Area, % of Control” value (Male Fl b hamsters; 3 mg/kg) is reported as 106%, the “Stained Area ORO” value (Male Fl b hamsters; aortic arch, 3 mg/kg in drinking water, 4 weeks, control 1.82 ± 0.44) is reported as 1.93 ± 0.33% and the “regression of aortic lesions” value (Male Fl b hamsters; pravastatin 3 mg/kg, fluvastatin 1.5 mg/kg, troglitazone 30 mg/kg alone, combinations) is reported as “no regression of aortic lesions”. For the same compound, the “Frequency of massive xanthoma” value (WHHL rabbits; control 57, *p < 0.05, **p < 0.01 vs control) was 42, the “incidence of xanthoma” value (WHHL rabbits; forelegs and hindlegs) was “slightly less frequent incidence of xanthoma” and the “Distribution of severity of lesion: (-) no lesions” value (WHHL rabbits; number of legs, control 0) was 3. For the same compound, the “Distribution of severity of lesion: (+++) severe lesion” value (WHHL rabbits; number of legs, control 6) was 2, the “Distribution of severity of lesion: (++) moderate lesion” value (WHHL rabbits; number of legs, control 10) was 8 and the “Distribution of severity of lesion: (+) slight lesion” value (WHHL rabbits; number of legs, control 12) was 11. For the same compound, the “Incidence of xanthoma, Forelegs” value (WHHL rabbits; [1]) was 100%, the “Incidence of xanthoma, Hindlegs” value (WHHL rabbits; [1]) was 75% and the “Incidence of xanthoma, Total” value (WHHL rabbits; oral, eight months, control 100 (28/28), *p < 0.05, **p < 0.01 vs control) was 88%.
